Measurements: patent publication US20260078120A1, “SUBSTITUTED PYRIDOPYRIMIDINONES” (MIRATI THERAPEUTICS, INC., priority 2022, published 2026)
Like-named read-outs stand apart in the source and are kept apart here.

Columns and labels:
[1] = tested on: T47D (PI3Kα H1047R mutant) cells; experiment: CellTiter-Glo 2.0 luminescent cell viability assay, 72 hours, T47D cells; assay type: cell-based; settings: T47D (PI3Kα H1047R mutant) cells, CellTiter-Glo, approximately 72 hours, read-out: T47D (H1047R mutant) Viability IC50
Procedure, shortened: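 Cells seeded at 1000 per well overnight were dosed with a 10-concentration, 1:4 series starting at 10 µM and incubated ~72 h at 37° C. Viability was read by CellTiter-Glo 2.0 luminescence after 30 min at room temperature. IC50 came from four-parameter fits of percent vehicle control.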

[2] = tested on: SKBR3 (PI3Kα wild type) cells; experiment: CellTiter-Glo 2.0 luminescent cell viability assay, 72 hours, SKBR3 cells; assay type: cell-based; settings: Homo sapiens, SK-BR-3, 72 h, SKBR3 (PI3Kα wild type) cells, CellTiter-Glo, approximately 72 hours; read-out: SKBR3 (WT) Viability IC50
Procedure, shortened: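 Viability measured via CTG luminescence following roughly 72 hours of compound exposure at 37° C. Dosing used a 10 um starting concentration diluted 1:4 over 10 points; percent-of-vehicle data fitted with a variable-slope four-parameter model for IC50.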

IC50 [1]	IC50 [2]	IC50 ([1]; Homo sapiens, T47D, 72 h)	Structure (SMILES)
–	> 10 µM	> 10000 nM	Cc1cc(C(C)Nc2ccccc2C(=O)O)c2nc(-c3ccn(C)n3)cc(=O)n2c1 (stereo not drawn) [Example 11-404, 2-((1-(7-methyl-2-(1-methyl-1H-pyrazol-3-yl)-4-oxo-4H-pyrido[1,2-a]pyrimidin-9-yl)ethyl)amino)benzoic acid]
–	> 10 µM	4380 nM	Cc1cc(C(C)Nc2ccccc2C(=O)O)c2nc(-c3ccc(Cl)cc3)cc(=O)n2c1 (stereo not drawn) [Example 11-396, 2-((1-(2-(4-chlorophenyl)-7-methyl-4-oxo-4H-pyrido[1,2-a]pyrimidin-9-yl)ethyl)amino)benzoic acid]
–	> 10 µM	> 10000 nM	Cc1cc(C#N)c2nc(N3CCCCC3)cc(=O)n2c1 [Example 11-409, 7-methyl-4-oxo-2-(piperidin-1-yl)-4H-pyrido[1,2-a]pyrimidine-9-carbonitrile]
–	> 10 µM	> 10000 nM	Cc1cc(N2CCC(C(=O)O)CC2)c2nc(N3CCCCC3)cc(=O)n2c1 [Example 11-347, 1-(7-methyl-4-oxo-2-(piperidin-1-yl)-4H-pyrido[1,2-a]pyrimidin-9-yl)piperidine-4-carboxylic acid]
–	> 10 µM	1820 nM	Cc1cc([C@H](C)Nc2ccccc2C(=O)O)c2nc(N3CCCCC3)c(C(F)(F)F)c(=O)n2c1 [Example 11-414, (S)-2-((1-(7-methyl-4-oxo-2-(piperidin-1-yl)-3-(trifluoromethyl)-4H-pyrido[1,2-a]pyrimidin-9-yl)ethyl)amino)benzoic acid]
–	> 10 µM	> 10000 nM	Cc1cc(C(C)Nc2cccc(C)c2C(=O)O)c2nc(N3CCCCC3)cc(=O)n2c1 (stereo not drawn) [Example 11-390, 2-methyl-6-((1-(7-methyl-4-oxo-2-(piperidin-1-yl)-4H-pyrido[1,2-a]pyrimidin-9-yl)ethyl)amino)benzoic acid]
–	> 10 µM	9620 nM	Cc1cc(C(C)Nc2ccccc2C(=O)O)c2nc(-c3ccc(F)cc3)cc(=O)n2c1 (stereo not drawn) [Example 11-391, 2-((1-(2-(4-fluorophenyl)-7-methyl-4-oxo-4H-pyrido[1,2-a]pyrimidin-9-yl)ethyl)amino)benzoic acid]
–	> 10 µM	1060 nM	Cc1cc(C(C)Nc2ccccc2C(=O)O)c2nc(-c3ccccc3)c(C)c(=O)n2c1 (stereo not drawn) [Example 11-403, 2-((1-(3,7-dimethyl-4-oxo-2-phenyl-4H-pyrido[1,2-a]pyrimidin-9-yl)ethyl)amino)benzoic acid]
–	> 10 µM	> 10000 nM	C[C@H](Nc1ccccc1C(=O)O)c1cccn2c(=O)cc(N3CCCCC3)nc12 [Example 11-423, (S)-2-((1-(4-oxo-2-(piperidin-1-yl)-4H-pyrido[1,2-a]pyrimidin-9-yl)ethyl)amino)benzoic acid]

The next lines start with the compound.

Structure (SMILES)	IC50 [1]	IC50 [2]	IC50 ([1]; Homo sapiens, T47D, 72 h)
CCc1cc([C@@H](C)Nc2ccccc2C(=O)O)c2nc(N3Cc4ccccc4C3)c(C#N)c(=O)n2c1 [Example 11-328, (R)-2-((1-(3-cyano-7-ethyl-2-(isoindolin-2-yl)-4-oxo-4H-pyrido[1,2-a]pyrimidin-9-yl)ethyl)amino)benzoic acid]	1910 nM	6.82 µM	–
Cc1cc([C@@H](C)Nc2ccccc2C(=O)O)c2nc(N3CC4C5CCC(CC5)C4C3)c(C)c(=O)n2c1 (stereo partly drawn) [Example 10-133, 2-(((1R)-1-(3,7-dimethyl-2-(octahydro-2H-4,7-ethanoisoindol-2-yl)-4-oxo-4H-pyrido[1,2-a]pyrimidin-9-yl)ethyl)amino)benzoic acid]	–	> 10 µM	55.4 nM
Cc1cc([C@@H](C)Nc2ccccc2C(=O)O)c2nc(N(C)CC3CC3)c(C)c(=O)n2c1 [Example 11-203, (R)-2-((1-(2-((cyclopropylmethyl)(methyl)amino)-3,7-dimethyl-4-oxo-4H-pyrido[1,2-a]pyrimidin-9-yl)ethyl)amino)benzoic acid]	–	> 10 µM	356 nM
Cc1cc([C@@H](C)Nc2ccccc2C(=O)O)c2nc(N3CC4(CCC4(F)F)C3)c(C#N)c(=O)n2c1 [Example 11-200, (R)-2-((1-(3-cyano-2-(5,5-difluoro-2-azaspiro[3.3]heptan-2-yl)-7-methyl-4-oxo-4H-pyrido[1,2-a]pyrimidin-9-yl)ethyl)amino)benzoic acid]	–	> 10 µM	129 nM
Cc1cc([C@H](C)Nc2ccccc2)c2nc(N3Cc4ccccc4C3)c(C#N)c(=O)n2c1 [Example 11-300, (S)-2-(isoindolin-2-yl)-7-methyl-4-oxo-9-(1-(phenylamino)ethyl)-4H-pyrido[1,2-a]pyrimidine-3-carbonitrile]	–	> 10 µM	3710 nM
Cc1cc([C@@H](C)Nc2ccccc2C(=O)O)c2nc(N3CC(F)(F)C3)c(C)c(=O)n2c1 [Example 11-115, (R)-2-((1-(2-(3,3-difluoroazetidin-1-yl)-3,7-dimethyl-4-oxo-4H-pyrido[1,2-a]pyrimidin-9-yl)ethyl)amino)benzoic acid]	–	> 10 µM	379 nM
Cc1cc([C@@H](C)Nc2ccccc2C(=O)O)c2nc(C3=CCN(C)CC3)c(C)c(=O)n2c1 [Example 11-148, (R)-2-((1-(3,7-dimethyl-2-(1-methyl-1,2,3,6-tetrahydropyridin-4-yl)-4-oxo-4H-pyrido[1,2-a]pyrimidin-9-yl)ethyl)amino)benzoic acid]	–	> 10 µM	1190 nM
Cc1cc(C(C)Nc2ccccc2C(=O)O)c2nc(Oc3cccc(C#N)c3)cc(=O)n2c1 (stereo not drawn) [Example 11-340, 2-((1-(2-(3-cyanophenoxy)-7-methyl-4-oxo-4H-pyrido[1,2-a]pyrimidin-9-yl)ethyl)amino)benzoic acid]	–	> 10 µM	> 10000 nM
Cc1cc([C@@H](C)Nc2ccc(F)nc2C(=O)O)c2nc(N3CCC(F)(F)CC3)c(C)c(=O)n2c1 [Example 10-105, (R)-3-((1-(2-(4,4-difluoropiperidin-1-yl)-3,7-dimethyl-4-oxo-4H-pyrido[1,2-a]pyrimidin-9-yl)ethyl)amino)-6-fluoropicolinic acid]	89.4 nM	> 10 µM	–
Cc1cc([C@@H](C)Nc2ccccc2C(=O)O)c2nc(N3CC4CCCCCCC4C3)c(C)c(=O)n2c1 (stereo partly drawn) [Example 11-27, 2-(((1R)-1-(2-(decahydro-2H-cycloocta[c]pyrrol-2-yl)-3,7-dimethyl-4-oxo-4H-pyrido[1,2-a]pyrimidin-9-yl)ethyl)amino)benzoic acid]	–	> 10 µM	1600 nM
Cc1cc([C@@H](C)Nc2ccccc2C(=O)O)c2nc(N3CCC(C(C)(C)C)n4nccc43)c(C)c(=O)n2c1 (stereo partly drawn) [Example 11-13, 2-(((1R)-1-(2-(7-(tert-butyl)-6,7-dihydropyrazolo[1,5-a]pyrimidin-4(5H)-yl)-3,7-dimethyl-4-oxo-4H-pyrido[1,2-a]pyrimidin-9-yl)ethyl)amino)benzoic acid]	–	> 10 µM	324 nM
Cc1cc([C@@H](C)Nc2ccccc2C(=O)O)c2nc(N3CCN(c4cccc5c(C#N)nn(C)c45)CC3)c(C)c(=O)n2c1 [Example 11-251, (R)-2-((1-(2-(4-(3-cyano-1-methyl-1H-indazol-7-yl)piperazin-1-yl)-3,7-dimethyl-4-oxo-4H-pyrido[1,2-a]pyrimidin-9-yl)ethyl)amino)benzoic acid]	–	> 10 µM	263 nM
Cc1cc(C(=O)N2CCCC2C(=O)O)c2nc(N3CCCCC3)cc(=O)n2c1 (stereo not drawn) [Example 11-345, (7-methyl-4-oxo-2-(piperidin-1-yl)-4H-pyrido[1,2-a]pyrimidin-9-carbonyl)proline]	–	> 10 µM	> 10000 nM
Cc1cc([C@@H](C)Nc2ccccc2C(=O)O)c2nc(N[C@@H](C)c3cccnc3)c(C#N)c(=O)n2c1 [Example 11-52, 2-(((R)-1-(3-cyano-7-methyl-4-oxo-2-(((S)-1-(pyridin-3-yl)ethyl)amino)-4H-pyrido[1,2-a]pyrimidin-9-yl)ethyl)amino)benzoic acid]	–	> 10 µM	6640 nM
Cc1cc([C@@H](C)Nc2ccccc2C(=O)O)c2nc(N3Cc4ncsc4C3)c(C)c(=O)n2c1 [Example 11-304, (R)-2-((1-(2-(4,6-dihydro-5H-pyrrolo[3,4-d]thiazol-5-yl)-3,7-dimethyl-4-oxo-4H-pyrido[1,2-a]pyrimidin-9-yl)ethyl)amino)benzoic acid]	–	> 10 µM	197 nM
Cc1cc([C@@H](C)Nc2ccccc2C(=O)O)c2nc(-c3cccc(C(C)(C)C#N)c3)c(C)c(=O)n2c1 [Example 11-238, (R)-2-((1-(2-(3-(2-cyanopropan-2-yl)phenyl)-3,7-dimethyl-4-oxo-4H-pyrido[1,2-a]pyrimidin-9-yl)ethyl)amino)benzoic acid]	–	> 10 µM	310 nM
Cc1cc([C@@H](C)Nc2ccccc2C(=O)O)c2nc(N3CC4CC(C)(C)C4C3)c(C)c(=O)n2c1 (stereo partly drawn) [Example 11-24, 2-(((1R)-1-(2-(6,6-dimethyl-3-azabicyclo[3.2.0]heptan-3-yl)-3,7-dimethyl-4-oxo-4H-pyrido[1,2-a]pyrimidin-9-yl)ethyl)amino)benzoic acid]	–	> 10 µM	123 nM
Cc1cc([C@@H](C)Nc2ccccc2C(=O)O)c2nc(O[C@@H]3CCOC3)c(C#N)c(=O)n2c1 [Example 11-247, 2-(((R)-1-(3-cyano-7-methyl-4-oxo-2-(((R)-tetrahydrofuran-3-yl)oxy)-4H-pyrido[1,2-a]pyrimidin-9-yl)ethyl)amino)benzoic acid]	–	> 10 µM	1540 nM
